Data from PMC5620987 (ACS Central Science, 2017).
Where two headings read alike, the source gives them in different places.

Key:
H3K9ac = type: cell-based; conditions: 6 h, human iPSC-derived NPCs, Western blot
H4K12ac = type: cell-based; conditions: 6 h, human iPSC-derived NPCs, Western blot
α-tubulin-ac = type: cell-based; conditions: 6 h, human iPSC-derived NPCs, Western blot
HDAC6 = HDAC6 (Rattus norvegicus, UniProt A0A8I6GM68); assay: Autoradiography with [18F]Bavarostat on rat brain slices; type: binding, Sprague–Dawley rat; conditions: sagittal rat brain slices; 10 μM per Figure 4 legend (100 μM per method)
Chain of HDAC6 (A0A8I6GM68 whole entry): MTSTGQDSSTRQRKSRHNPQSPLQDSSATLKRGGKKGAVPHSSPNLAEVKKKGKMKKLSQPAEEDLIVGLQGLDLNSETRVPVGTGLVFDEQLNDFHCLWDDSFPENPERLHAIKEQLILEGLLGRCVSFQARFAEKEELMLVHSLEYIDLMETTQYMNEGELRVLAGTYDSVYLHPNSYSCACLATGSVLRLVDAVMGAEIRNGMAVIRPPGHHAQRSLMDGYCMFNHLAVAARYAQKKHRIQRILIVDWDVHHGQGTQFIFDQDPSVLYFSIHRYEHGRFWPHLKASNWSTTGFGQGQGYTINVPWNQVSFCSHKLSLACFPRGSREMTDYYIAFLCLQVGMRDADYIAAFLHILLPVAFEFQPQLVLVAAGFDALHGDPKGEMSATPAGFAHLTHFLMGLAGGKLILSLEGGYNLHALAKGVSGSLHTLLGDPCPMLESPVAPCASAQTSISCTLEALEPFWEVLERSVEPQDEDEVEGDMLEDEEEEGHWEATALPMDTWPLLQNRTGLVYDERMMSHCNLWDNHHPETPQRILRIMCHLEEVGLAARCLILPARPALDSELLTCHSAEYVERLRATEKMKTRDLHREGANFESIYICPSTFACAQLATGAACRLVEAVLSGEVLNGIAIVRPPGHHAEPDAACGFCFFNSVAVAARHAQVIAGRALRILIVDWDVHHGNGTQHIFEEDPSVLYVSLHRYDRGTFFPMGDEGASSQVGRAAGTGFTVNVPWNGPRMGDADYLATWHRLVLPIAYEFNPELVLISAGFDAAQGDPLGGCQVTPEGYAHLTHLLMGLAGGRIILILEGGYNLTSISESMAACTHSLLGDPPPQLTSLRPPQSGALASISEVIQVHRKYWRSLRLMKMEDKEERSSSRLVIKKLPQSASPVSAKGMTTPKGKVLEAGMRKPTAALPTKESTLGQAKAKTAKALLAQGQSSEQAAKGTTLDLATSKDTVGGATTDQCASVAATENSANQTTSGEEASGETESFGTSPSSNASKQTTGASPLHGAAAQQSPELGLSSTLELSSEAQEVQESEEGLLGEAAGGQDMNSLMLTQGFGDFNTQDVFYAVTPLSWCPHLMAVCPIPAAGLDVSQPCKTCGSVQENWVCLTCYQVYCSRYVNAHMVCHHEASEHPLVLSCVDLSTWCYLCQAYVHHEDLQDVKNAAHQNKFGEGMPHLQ

| SMILES | H3K9ac level vs DMSO (H3K9ac; 5 μM) | H4K12ac level vs DMSO (H4K12ac; 5 μM) | α-tubulin acetylation level (α-tubulin-ac) vs DMSO (α-tubulin-ac; 5 μM) | H3K9ac level vs DMSO (H3K9ac; 10 μM) | H4K12ac level vs DMSO (H4K12ac; 10 μM) | α-tubulin acetylation level (α-tubulin-ac) vs DMSO (α-tubulin-ac; 10 μM) | Reduction of bound [18F]Bavarostat radioactivity (HDAC6) |
| --- | --- | --- | --- | --- | --- | --- | --- |
| O=C(CCCCCCNC(=O)c1cnc(N(c2ccccc2)c2ccccc2)nc1)NO [ACY-1215] | increased | increased | effectively increased |  |  |  |  |
| CC(=O)Nc1ccc(C(=O)Nc2ccccc2N)cc1 [CI-994] |  |  |  | significant increase | significant increase | not α-tubulin-ac |  |
| CN1CCc2c(c3ccccc3n2Cc2ccc(C(=O)NO)cc2)C1 [Tubastatin A] |  |  |  |  |  | significantly increased | comparable level as Bavarostat |
